# PMC5218480 (PLoS ONE, 2017)
# System: MV-4-11 cells
# Assay: Gene expression microarray analysis (Affymetrix PrimeView) and GSEA
# Assay type: cell-based, human
# Design: RFU PODN (11730768_x_at) / Fold change /veh PODN (11730768_x_at) / RFU LINC00158 (11744669_a_at) / Fold change /veh LINC00158 (11744669_a_at) / RFU DUSP10 (11751237_a_at) / Fold change /veh DUSP10 (11751237_a_at) / RFU ID3 (11757404_x_at) / Fold change /veh ID3 (11757404_x_at) / RFU PLEKHG5 (11737974_s_at) / Fold change /veh PLEKHG5 (11737974_s_at) / RFU LRRC4B (11730491_at) / Fold change /veh LRRC4B (11730491_at) / RFU GIMAP4 (11747438_a_at) / Fold change /veh GIMAP4 (11747438_a_at) / RFU KRT8 (11758183_x_at) / Fold change /veh KRT8 (11758183_x_at) / RFU CNN1 (11734310_a_at) / Fold change /veh CNN1 (11734310_a_at) / RFU VPS37D (11726825_at) / Fold change /veh VPS37D (11726825_at) / RFU C10orf10 (11716522_x_at) / Fold change /veh C10orf10 (11716522_x_at) / RFU KIR2DL2 /// KIR2DL4 /// KIR2DL5A /// KIR2DL5B /// KIR2DS1 /// KIR2DS2 /// KIR2DS3 /// KIR2DS4 /// KIR3DL3 /// KIR3DL3 /// KIR3DS1 (11738374_at) / Fold change /veh KIR2DL2 /// KIR2DL4 /// KIR2DL5A /// KIR2DL5B /// KIR2DS1 /// KIR2DS2 /// KIR2DS3 /// KIR2DS4 /// KIR3DL3 /// KIR3DL3 /// KIR3DS1 (11738374_at) / RFU C1QL1 (11718748_at) / Fold change /veh C1QL1 (11718748_at) / RFU TMPRSS4 (11747572_a_at) / Fold change /veh TMPRSS4 (11747572_a_at) / RFU HAMP (11756126_x_at) / Fold change /veh HAMP (11756126_x_at) / RFU RNFT2 (11725882_a_at) / Fold change /veh RNFT2 (11725882_a_at) / RFU NR4A2 (11747474_a_at) / Fold change /veh NR4A2 (11747474_a_at) / RFU ABCC12 (11746883_a_at) / Fold change /veh ABCC12 (11746883_a_at) / RFU TMEM136 (11760407_x_at) / Fold change /veh TMEM136 (11760407_x_at) / RFU CLDN22 /// WWC2 (11732394_at) / Fold change /veh CLDN22 /// WWC2 (11732394_at) / RFU HLA-DPB1 (11760878_x_at) / Fold change /veh HLA-DPB1 (11760878_x_at) / RFU SPINT1 (11716480_a_at) / Fold change /veh SPINT1 (11716480_a_at) / RFU GAP43 (11754022_s_at) / Fold change /veh GAP43 (11754022_s_at) / RFU A4GNT (11735810_at) / Fold change /veh A4GNT (11735810_at) / RFU PRB3 (11715151_x_at) / Fold change /veh PRB3 (11715151_x_at) / RFU TUBB4B (11761932_at) / Fold change /veh TUBB4B (11761932_at) / RFU CAPN14 (11732068_a_at) / Fold change /veh CAPN14 (11732068_a_at) / RFU TMCC2 (11721928_a_at) / Fold change /veh TMCC2 (11721928_a_at) / RFU IRGQ (11745062_a_at) / Fold change /veh IRGQ (11745062_a_at) / RFU FAM174B (11720279_a_at) / Fold change /veh FAM174B (11720279_a_at) / RFU TMPRSS4 (11748680_a_at) / Fold change /veh TMPRSS4 (11748680_a_at) / RFU FAM212B (11763350_a_at) / Fold change /veh FAM212B (11763350_a_at) / RFU PLEKHG5 (11743358_a_at) / Fold change /veh PLEKHG5 (11743358_a_at) / RFU ZSCAN30 (11745921_a_at) / Fold change /veh ZSCAN30 (11745921_a_at) / RFU CMKLR1 (11741424_a_at) / Fold change /veh CMKLR1 (11741424_a_at) / RFU LOC101060620 /// MAPK8IP1 (11723275_at) / Fold change /veh LOC101060620 /// MAPK8IP1 (11723275_at) / RFU SPTSSB (11747773_x_at) / Fold change /veh SPTSSB (11747773_x_at) / RFU PRSS12 (11739890_at) / Fold change /veh PRSS12 (11739890_at) / RFU BIN1 (11741810_x_at) / Fold change /veh BIN1 (11741810_x_at) / RFU WNT11 (11732464_a_at) / Fold change /veh WNT11 (11732464_a_at) / RFU C10orf10 (11716521_a_at) / Fold change /veh C10orf10 (11716521_a_at) / RFU C5orf56 (11738089_at) / Fold change /veh C5orf56 (11738089_at) / RFU CYB561 (11721691_x_at) / Fold change /veh CYB561 (11721691_x_at) / RFU ANKRD19P (11752326_a_at) / Fold change /veh ANKRD19P (11752326_a_at) / RFU OR2T12 /// OR2T33 /// OR2T8 (11738714_s_at) / Fold change /veh OR2T12 /// OR2T33 /// OR2T8 (11738714_s_at) / RFU VCAN (11748164_a_at) / Fold change /veh VCAN (11748164_a_at) / RFU JSRP1 (11732532_at) / Fold change /veh JSRP1 (11732532_at) / RFU KRTAP10-11 (11738290_x_at) / Fold change /veh KRTAP10-11 (11738290_x_at) / RFU MYO3A (11730013_a_at) / Fold change /veh MYO3A (11730013_a_at) / RFU EBF3 (11725865_a_at) / Fold change /veh EBF3 (11725865_a_at) / RFU CAMK2N1 (11719241_x_at) / Fold change /veh CAMK2N1 (11719241_x_at) / RFU C5orf56 (11738088_a_at) / Fold change /veh C5orf56 (11738088_a_at) / RFU OLFML3 (11715873_a_at) / Fold change /veh OLFML3 (11715873_a_at) / RFU LOC100653217 /// NTM (11731650_a_at) / Fold change /veh LOC100653217 /// NTM (11731650_a_at) / RFU MAPK11 (11762145_a_at) / Fold change /veh MAPK11 (11762145_a_at) / RFU FIZ1 (11724087_x_at) / Fold change /veh FIZ1 (11724087_x_at) / RFU OASL (11726364_x_at) / Fold change /veh OASL (11726364_x_at) / RFU SOX15 (11748057_x_at) / Fold change /veh SOX15 (11748057_x_at) / RFU CD79A (11719716_a_at) / Fold change /veh CD79A (11719716_a_at) / RFU HIST1H1D (11736915_at) / Fold change /veh HIST1H1D (11736915_at) / RFU CASKIN2 (11723855_a_at) / Fold change /veh CASKIN2 (11723855_a_at) / RFU LOC730098 (11760151_x_at) / Fold change /veh LOC730098 (11760151_x_at) / RFU OR4N2 (11742367_at) / Fold change /veh OR4N2 (11742367_at) / RFU PRRT2 (11749266_a_at) / Fold change /veh PRRT2 (11749266_a_at) / RFU SNX32 (11753110_a_at) / Fold change /veh SNX32 (11753110_a_at) / RFU CDHR5 (11726645_a_at) / Fold change /veh CDHR5 (11726645_a_at) / RFU RCAN1 (11760418_a_at) / Fold change /veh RCAN1 (11760418_a_at) / RFU FAM167A (11723789_a_at) / Fold change /veh FAM167A (11723789_a_at) / RFU FAM26E (11764081_at) / Fold change /veh FAM26E (11764081_at) / RFU ISYNA1 (11749810_s_at) / Fold change /veh ISYNA1 (11749810_s_at) / RFU ACY1 (11761880_at) / Fold change /veh ACY1 (11761880_at) / RFU 11764098_at / Fold change /veh 11764098_at / RFU SAMD14 (11745864_x_at) / Fold change /veh SAMD14 (11745864_x_at) / RFU NPB (11741838_a_at) / Fold change /veh NPB (11741838_a_at) / RFU TMPRSS6 (11731388_a_at) / Fold change /veh TMPRSS6 (11731388_a_at) / RFU KRTAP10-2 (11738614_at) / Fold change /veh KRTAP10-2 (11738614_at) / RFU ARHGAP8 /// PRR5-ARHGAP8 (11727945_x_at) / Fold change /veh ARHGAP8 /// PRR5-ARHGAP8 (11727945_x_at) / RFU KRTAP5-7 /// NADSYN1 (11734609_at) / Fold change /veh KRTAP5-7 /// NADSYN1 (11734609_at) / RFU RASL12 (11751679_a_at) / Fold change /veh RASL12 (11751679_a_at) / RFU CDKN2B (11736163_a_at) / Fold change /veh CDKN2B (11736163_a_at) / RFU PRF1 (11729649_at) / Fold change /veh PRF1 (11729649_at) / RFU, ZNF638 /// ZNF638-IT1 / Fold change vs veh, ZNF638 /// ZNF638-IT1 / RFU, PANK3 / Fold change vs veh, PANK3 / RFU, SH3YL1 / Fold change vs veh, SH3YL1 / RFU, ZEB2 / Fold change vs veh, ZEB2 / RFU, NRIP1 / Fold change vs veh, NRIP1 / RFU, PTTG1IP / Fold change vs veh, PTTG1IP / RFU, CAPN2 / Fold change vs veh, CAPN2 / RFU, MED14 / Fold change vs veh, MED14 / RFU, SNORA58 / Fold change vs veh, SNORA58 / RFU, C1orf63 / Fold change vs veh, C1orf63 / RFU, LRRFIP1 / Fold change vs veh, LRRFIP1 / RFU, NDUFAF7 / Fold change vs veh, NDUFAF7 / RFU, SLC12A2 / Fold change vs veh, SLC12A2 / RFU, IBTK / Fold change vs veh, IBTK / RFU, ESF1 / Fold change vs veh, ESF1 / Fold change vs veh, TMEM50B / RFU, TAOK1 / Fold change vs veh, TAOK1 / RFU, ACBD3 / Fold change vs veh, ACBD3 / RFU, TMA16 / Fold change vs veh, TMA16 / RFU, RWDD3 / Fold change vs veh, RWDD3 / RFU, BCAT1 / Fold change vs veh, BCAT1 / RFU, EDEM3 / Fold change vs veh, EDEM3 / RFU, TMEM33 / Fold change vs veh, TMEM33 / RFU, WDR75 / Fold change vs veh, WDR75 / RFU, AHCTF1 / Fold change vs veh, AHCTF1 / RFU, TFRC / Fold change vs veh, TFRC / RFU, ZDHHC17 / Fold change vs veh, ZDHHC17 / RFU, NOM1 / Fold change vs veh, NOM1 / RFU, ARL8B / Fold change vs veh, ARL8B / RFU, ZBTB11 / Fold change vs veh, ZBTB11 / RFU, TAMM41 / Fold change vs veh, TAMM41 / RFU, KIAA1704 /// LOC100996395 / Fold change vs veh, KIAA1704 /// LOC100996395 / RFU, ING1 / Fold change vs veh, ING1 / RFU, TRMT61B / Fold change vs veh, TRMT61B / RFU, FUBP3 / Fold change vs veh, FUBP3 / RFU, TP53 / Fold change vs veh, TP53 / RFU, TNKS2 / Fold change vs veh, TNKS2 / RFU, ZFP14 / Fold change vs veh, ZFP14 / RFU, ACTR2 / Fold change vs veh, ACTR2 / RFU, PPP3R1 / Fold change vs veh, PPP3R1 / RFU, PIK3R1 / Fold change vs veh, PIK3R1 / RFU, HNRNPA1 / Fold change vs veh, HNRNPA1 / RFU, RNF170 / Fold change vs veh, RNF170 / RFU, ZNF28 / Fold change vs veh, ZNF28 / RFU, RNGTT / Fold change vs veh, RNGTT / RFU, OGT / Fold change vs veh, OGT / RFU, BRD1 / Fold change vs veh, BRD1 / RFU, MARS / Fold change vs veh, MARS / RFU, ZNF655 / Fold change vs veh, ZNF655 / RFU, FAHD1 / Fold change vs veh, FAHD1 / RFU, BDP1 / Fold change vs veh, BDP1 / RFU, LRRCC1 / Fold change vs veh, LRRCC1 / RFU, ARID1A / Fold change vs veh, ARID1A / RFU, ZNF146 / Fold change vs veh, ZNF146 / RFU, ZNF330 / Fold change vs veh, ZNF330 / RFU, GPN3 / Fold change vs veh, GPN3 / RFU, C9orf123 / Fold change vs veh, C9orf123 / RFU, N4BP2L2 / Fold change vs veh, N4BP2L2 / RFU, ARFIP1 / Fold change vs veh, ARFIP1 / RFU, FAM179B / Fold change vs veh, FAM179B / RFU, BCL10 / Fold change vs veh, BCL10 / RFU, UHRF1BP1L / Fold change vs veh, UHRF1BP1L / RFU, BET1 / Fold change vs veh, BET1 / RFU, CNOT2 / Fold change vs veh, CNOT2 / RFU, ZNF268 / Fold change vs veh, ZNF268 / Fold change vs veh, ZNF507 / RFU, DGCR2 / Fold change vs veh, DGCR2 / RFU, WDSUB1 / Fold change vs veh, WDSUB1 / Fold change vs veh, HSP90B1 /// MIR3652 / RFU, ADSS / Fold change vs veh, ADSS / RFU, GK / Fold change vs veh, GK / RFU, ZNF148 / Fold change vs veh, ZNF148 / RFU, TAF9 / Fold change vs veh, TAF9 / RFU, SLC1A5 / Fold change vs veh, SLC1A5 / RFU, SLMO2 / Fold change vs veh, SLMO2 / RFU, ABCC4 / Fold change vs veh, ABCC4 / RFU, LOC101060439 /// RAP1B / Fold change vs veh, LOC101060439 /// RAP1B / RFU, RFX7 / Fold change vs veh, RFX7 / RFU, GTPBP10 / Fold change vs veh, GTPBP10 / RFU, CNEP1R1 / Fold change vs veh, CNEP1R1 / RFU, BIVM-ERCC5 /// ERCC5 / Fold change vs veh, BIVM-ERCC5 /// ERCC5 / RFU, ILF3 / Fold change vs veh, ILF3 / RFU 11762660_at / Fold change /veh 11762660_at / RFU VCAN (11757783_s_at) / Fold change /veh VCAN (11757783_s_at) / RFU DDX43 (11728927_at) / Fold change /veh DDX43 (11728927_at) / RFU KRT8 (11758188_x_at) / Fold change /veh KRT8 (11758188_x_at) / RFU NKD1 (11759106_at) / Fold change /veh NKD1 (11759106_at) / RFU SRD5A1 (11742802_a_at) / Fold change /veh SRD5A1 (11742802_a_at) / RFU TPSAB1 /// TPSB2 (11721975_s_at) / Fold change /veh TPSAB1 /// TPSB2 (11721975_s_at) / RFU GSTM3 (11746129_a_at) / Fold change /veh GSTM3 (11746129_a_at) / RFU IL23R (11737362_x_at) / Fold change /veh IL23R (11737362_x_at) / RFU TMEM51 (11727254_a_at) / Fold change /veh TMEM51 (11727254_a_at) / RFU PIWIL2 (11732686_x_at) / Fold change /veh PIWIL2 (11732686_x_at) / RFU ORM1 (11744905_x_at) / Fold change /veh ORM1 (11744905_x_at) / RFU CCDC152 (11743942_at) / Fold change /veh CCDC152 (11743942_at) / RFU ECM1 (11717891_a_at) / Fold change /veh ECM1 (11717891_a_at) / RFU IL23R (11748794_a_at) / Fold change /veh IL23R (11748794_a_at) / RFU TNFAIP8L3 (11732012_x_at) / Fold change /veh TNFAIP8L3 (11732012_x_at) / RFU MBOAT4 (11741988_at) / Fold change /veh MBOAT4 (11741988_at) / RFU 11764193_at / Fold change /veh 11764193_at / RFU TMEM53 (11763286_at) / Fold change /veh TMEM53 (11763286_at) / RFU MAGEB2 (11727129_at) / Fold change /veh MAGEB2 (11727129_at) / RFU TMEM200A (11744735_a_at) / Fold change /veh TMEM200A (11744735_a_at) / RFU CCDC152 (11751479_a_at) / Fold change /veh CCDC152 (11751479_a_at) / RFU FAM211A (11726209_a_at) / Fold change /veh FAM211A (11726209_a_at) / RFU RGS16 (11746705_a_at) / Fold change /veh RGS16 (11746705_a_at) / RFU VCAN (11755009_s_at) / Fold change /veh VCAN (11755009_s_at) / RFU RHOB (11743442_s_at) / Fold change /veh RHOB (11743442_s_at) / RFU RGS16 (11720943_a_at) / Fold change /veh RGS16 (11720943_a_at) / RFU RGS16 (11720944_at) / Fold change /veh RGS16 (11720944_at) / RFU, VPS4B / Fold change vs veh, VPS4B / RFU, CREB1 / Fold change vs veh, CREB1 / RFU, DNAJC13 / Fold change vs veh, DNAJC13 / RFU, GNAQ / Fold change vs veh, GNAQ / RFU, CDK5R1 / Fold change vs veh, CDK5R1 / RFU, ZRANB3 / Fold change vs veh, ZRANB3 / RFU, CUL4A / Fold change vs veh, CUL4A / RFU, CCNY / Fold change vs veh, CCNY / RFU, UFL1 / Fold change vs veh, UFL1 / RFU, COG3 / Fold change vs veh, COG3 / RFU, DIAPH2 / Fold change vs veh, DIAPH2 / RFU, SKA2 / Fold change vs veh, SKA2 / RFU, AFF3 / Fold change vs veh, AFF3 / RFU, LMF1 / Fold change vs veh, LMF1 / RFU, IPO11 / Fold change vs veh, IPO11 / RFU, DFFB / Fold change vs veh, DFFB / RFU, FOXP1 / Fold change vs veh, FOXP1 / RFU, CARD8 / Fold change vs veh, CARD8 / RFU, STRN3 / Fold change vs veh, STRN3 / RFU, ADK / Fold change vs veh, ADK / RFU, RASSF2 / Fold change vs veh, RASSF2 / RFU, WIPF1 / Fold change vs veh, WIPF1 / RFU, LARP1B / Fold change vs veh, LARP1B / RFU, RASA1 / Fold change vs veh, RASA1 / RFU, RB1 / Fold change vs veh, RB1 / RFU, PPFIA1 / Fold change vs veh, PPFIA1 / RFU, MAT2A / Fold change vs veh, MAT2A / RFU, CCT5 / Fold change vs veh, CCT5 / RFU, WDR92 / Fold change vs veh, WDR92 / RFU, CUX1 / Fold change vs veh, CUX1 / RFU, TTC7A / Fold change vs veh, TTC7A / RFU, TMEM135 / Fold change vs veh, TMEM135 / RFU, DEPTOR / Fold change vs veh, DEPTOR / RFU, CPM / Fold change vs veh, CPM / RFU, DNAJB6 / Fold change vs veh, DNAJB6 / RFU, CACNA2D3 / Fold change vs veh, CACNA2D3 / RFU, DTX4 / Fold change vs veh, DTX4 / RFU, TFCP2 / Fold change vs veh, TFCP2 / RFU, GMCL1 /// GMCL1P1 / Fold change vs veh, GMCL1 /// GMCL1P1 / RFU, AEBP2 / Fold change vs veh, AEBP2 / RFU, SNHG1 /// SNORD22 /// SNORD25 /// SNORD26 /// SNORD27 /// SNORD28 /// SNORD29 /// SNORD31 / Fold change vs veh, SNHG1 /// SNORD22 /// SNORD25 /// SNORD26 /// SNORD27 /// SNORD28 /// SNORD29 /// SNORD31 / Fold change (Aza/veh), C12orf56 (ProbeSet 11735607_a_at) / Fold change (ACY-1035/veh), C12orf56 (ProbeSet 11735607_a_at) / Fold change (Aza/veh), FGFR1OP (ProbeSet 11751329_s_at) / Fold change (ACY-1035/veh), FGFR1OP (ProbeSet 11751329_s_at) / Fold change (Aza/veh), VPS36 (ProbeSet 11739960_a_at) / Fold change (ACY-1035/veh), VPS36 (ProbeSet 11739960_a_at) / RFU SYPL1 (11715823_x_at) / Fold change /veh SYPL1 (11715823_x_at) / RFU IGFBP7 (11715501_s_at) / Fold change /veh IGFBP7 (11715501_s_at) / RFU REEP3 (11722064_at) / Fold change /veh REEP3 (11722064_at) / RFU IGLL1 (11728026_x_at) / Fold change /veh IGLL1 (11728026_x_at): dose or concentration left out as unconfirmed
# Conditions: ProbeSet 11718977_a_at; LIST B
smiles,measurement,value
Nc1ccc(-c2cccs2)cc1NC(=O)c1ccc2c(c1)cc(C1CC1)n2CCN1CCOCC1 [ACY-1035],"Fold change vs veh, CAPN2",0.88
